Reference: patent EP0558960A1, “Medicament for the prophylaxis and treatment of the neurologic and psychiatric disorders caused by alcohol abuse, which contains thiamine, folic acid and cobalamine” (priority 1992, dated 1993)

Key:
[1] = Thiamine levels in plasma and erythrocytes after oral administration of the medicament with Benfotiamin; type: in vivo; details: comparator not printed in b22 (Thiaminhydrochlorid)
[2] = Availability and passage of the blood-brain barrier, Benfotiamin compared with Thiaminhydrochlorid; type: in vivo
[3] = in contrast to Thiaminhydrochlorid

höhere Anstiege von Thiamin und Thiamindiphosphat-coenzymen in den Erythrozyten [1]: ca. 130 -fach
höhere Plasmaspiegel an Thiamin [1]: 10 -fach
Verfügbarkeit ([2]; compared with Thiaminhydrochlorid): besser verfügbar als Thiaminhydrochlorid
Blut-Hirn-Schranke [2, 3]: passiert
Liquor cerebrospinalis [2, 3]: anreichert
Compound: CC(=C(CCOP(=O)(O)O)SC(=O)c1ccccc1)N(C=O)Cc1cnc(C)nc1N [Benfotiamin]
